Values belong to the compound of their own block, whether it stands above or below them.
What was measured:
PKA-N-HiBiT = PKA-N-HiBiT (Homo sapiens, UniProt P17612); experiment: SDR assay, PKA-N-HiBiT
[1] = target: T1, ABL1-N-HiBiT kinase domain (Homo sapiens, UniProt P00519); experiment: SDR assay, ABL1-N-HiBiT; settings: ABL1, SDR; heatmap data, 128 kinase inhibitors
T1 sequence (P00519 233-500): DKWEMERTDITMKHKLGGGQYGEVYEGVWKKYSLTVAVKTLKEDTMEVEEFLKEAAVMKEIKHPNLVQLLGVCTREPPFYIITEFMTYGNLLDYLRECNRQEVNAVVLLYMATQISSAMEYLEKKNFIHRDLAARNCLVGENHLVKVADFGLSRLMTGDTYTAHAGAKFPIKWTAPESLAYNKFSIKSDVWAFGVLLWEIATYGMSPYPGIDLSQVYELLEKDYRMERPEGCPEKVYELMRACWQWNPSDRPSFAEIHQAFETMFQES

EC50 (PKA-N-HiBiT): 17.4 µM
SMILES: Oc1ccc(-c2ccc(-c3cc(Nc4cccc(CNC5CC5)c4)n[nH]3)cc2)c(O)c1 [TCS 2312]

SMILES: Cc1n[nH]c2ccc(-c3cncc(OC[C@@H](N)Cc4c[nH]c5ccccc45)c3)cc12 [Compound A-443654]
PKA SDR Assay Mean (pSDR50) (PKA-N-HiBiT; without ATP): 6.76

ABL1 SDR pSDR50 [1]: 5.40
SMILES: Cc1ccccc1-n1c(C(C)Nc2nc(N)nc3nc[nH]c23)nc2cccc(C)c2c1=O.Cl (stereo not drawn) [CAL-130 HCl]

Source: PMC12064818, “A general assay platform to study protein pharmacology using ligand-dependent structural dynamics” (Nature Communications, 2025)
